Test results reported in US20020169296A1, “Linked, sequence-specific DNA-binding molecules” (priority 2000, published 2002).
Where two headings read alike, the source gives them in different places.

Key:
[1] = test system: Drosophila histone SAR probe (clustered/long AT-tracts); assay: DNase I footprinting on SAR probe; assay type: binding; conditions: for Kd: apparent dissociation constant, SAR probe, read-out: Kdapp SAR
Experimental: Since satellite I is composed of exclusively A and T bases, it constitutes an ‘ideal’ binding substrate for oligopyrroles. But to obtain SAR-specific compounds, molecules are required that preferably bind its clustered, irregularly spaced AT-tracts. Binding studies were carried out with P9, P7 and P13 on the Drosophila histone SAR probe which contains the following clustered/long AT-tracts (W15N3W17N5W16N13W8NW6 where N is any base, see also FIG. 3D). […] The ratio of these two affinities is used (KappW9/KappSAR) as an empirical measure of SAR specificity. For all compounds tested thus far, this value (referred to as SAR preference factor) was around unity (Table 3).
(§1) Fragments were purified on low-melt agarose gels and then cloned into a modified pSP64 vector, cut by BamHI and BglII. End-labeling was carried out following digestion with HindIII and a fill-in reaction with Klenow DNA polymerase. The labeled plasmid was cut with PvuII and the target fragments purified from low-melting agarose gels. The 657 bp EcoRl/Hinf1 fragment of the Drosophila histone SAR was cloned into the SmaI site of the modified pSP64 plasmid. This SAR probe was end-labeled following digestion with EcoRl, then cut with ClaI and the resulting 347 bp fragment purified from low-melting agarose gels.
(§2) All reactions were performed in a total volume of 40 μl. A polyamide stock solution or buffer (for reference lanes) was added to an assay buffer containing 20 kcpm radiolabeled DNA, affording final concentrations of 10 mM Tris-HCl (pH 7.4), 10 mM KCl, 10 mM MgCl, 5 mM CaCl2, 0.5 mM EDTA, 0.5 mM EGTA, 1 mM DTT and 0.1% digitonine. The solutions were allowed to equilibrate for at least 2 h at room temperature. Footprinting reactions were initiated by the addition of 2 μl of a DNase stock solution (containing −100 pg DNase I in buffer) and allowed to proceed for 2 min at room temperature. The reactions were stopped by addition of 10 μl of a solution containing 1.25 M NaCl, 100 mM EDTA. Next, 5 μl of a 1% SDS solution was added, followed by 2 μl of a solution containing 1 μg poly(dA-dT), 1 μg salmon sperm DNA and 10 μg glycogen and the DNA was ethanol precipitated (20 min at −20° C.). The reactions were resuspended in 4 μl of 80% formamide loading buffer, denatured 10 min at 85° C., cooled on ice and electrophoresed on 8% polyacrylamide denaturing gels (5% cross-link, 8 M urea) at 30 W for 1 h. The gels were dried and exposed o/n at −70° C.

[2] = molecular target: W9 probe (isolated 9 bp AT-tract); assay: DNase I footprinting on W9 probe; assay type: binding; conditions: for Kd: apparent dissociation constant, read-out: Kdapp W9
Description: To target AT-tracts, the principal component of satellite I, III and SARs), a pyrrole pentamer was synthesized by facile solid phase chemistry in which five pyrrole (Py) aromatic amino acid rings are linked covalently by amide bonds (Baird and Dervan, 1996). The resulting compound, termed P7 had the sequence Py-Py-Py-Py-Py-β-Dp (where β=β-alanine and Dp=dimethylaminopropylamide). This compound is expected to bind 7 successive A or T base pairs (Ws) according to the n+1 rule where n is the number of amides (Youngquist and Dervan, 1985). The DNA binding properties of P7 were assessed by DNAse I footprinting experiments using a synthetic probe containing isolated, repeated AT-tracts of 9 Ws (W9, FIG. 2A). By visual inspection, the apparent dissociation constant (Kapp) for P7 was estimated to be approximately 80 nM (Table 3).
were hybridized to obtain the W9 probe, oligomerized by ligation and digested with BamHl and BglII to obtain different tandem repeats. The following oligonucleotides were prepared identically:
as §1, §2

[3] = test system: Drosophila satellite III chromatin (topoisomerase II cleavage); assay: Topoisomerase II cleavage in satellite III of Kc nuclei in Xenopus egg extracts with VM26; assay type: biochemical
[4] = test system: sperm nuclei (condensation to chromatids); assay: Chromosome condensation of sperm nuclei in mitotic Xenopus egg extracts; assay type: biochemical; conditions: for reversal of condensation inhibition by competitor oligonucleotide: Lex10 1 μM
Description: Mitotic Xenopus egg extracts convert added nuclei and sperm to chromatids in vitro. This chromosome condensation process requires topoisomerase II (Adachi et al., 1991), the protein complex condensin (Hirano T, 1997) and presumably other unidentified activities present in the mitotic extract. First, chromatin is remodeled and nuclei then proceed quite synchronously through a number of morphologically distinguishable steps (Hirano and Mitchison, 1991). Remodeling is morphological manifested by swelling of the nuclei which involves exchange of basic sperm-specific proteins for H2A/H2B and the incorporation of histone B4 (Dimitrov S, 1994).
Pyrrole drugs were added to the extract together with the sperm or after the remodeling step (at 10 minutes) and the extent of condensation was determined after 120 min. At this time point, the conversion of all sperm nuclei to clusters of individual chromatids is complete in the absence of drug (FIG. 8A, control). […] Addition of this compound at 125 to 250 nM (indicated) arrested this process at the so-called early ‘ruffle’ stage (FIG. 8A). These structures retain the swollen sperm shape, but they have peripheral blebs (ruffles) and a slightly heterogeneous interior. At this drug concentration, no chromatids are seen. If the concentration of Lex10 is raised to 500 nM, we observed an even earlier arrest as evidenced by the accumulation of swollen, remodeled sperm-shaped nuclei containing a homogeneous interior and smooth periphery. […] The monomer P7 was also tested but we observed no inhibition with the pyrrole pentamer up to the highest concentration (8 μM) tested. Condensation was inhibited at a ruffle stage with a P9 concentration of 2 μM (not shown).
In the experiment shown in FIG. 8B, Lex10 was added to the extract at a final concentration of 1 μM (several fold above the minimum inhibitory concentration) after which competitor oligonucleotides were added at different stages. Three different oligonucleotides of similar size were used: the SAR oligo contains two large clustered AT-tracts of the SAR probe (W17N5W15), the W9 oligo has a single AT tract of 9 base pairs and the GAGAA oligo harbors 5 tandem GAGAA repeats.
Topoisomerase II inhibition and chromosome assembly were as described previously (Girard et al., 1998, Strick and Laemmli, 1995). Affinity cleavage experiments was performed as described elsewhere (Turner et al., 1997).

CN(C)CCCNC(=O)CCNC(=O)c1cc(NC(=O)c2cc(NC(=O)c3cc(NC(=O)c4cc(NC(=O)c5cccn5C)cn4C)cn3C)cn2C)cn1C [Compound P7, Py-Py-Py-Py-Py-β-Dp]
Ratio (KappW9/KappSAR, SAR preference factor) [1]: 2.3
Kd [1]: 0.035 µM
Kd ([2]; W9 probe, listed as P10): 0.08 µM
Kd ([2]; W9 probe): ~0.08 µM
stimulation of topoisomerase II cleavage in satellite III [3]: massively stimulated
concentration inhibiting chromosome condensation (block at ruffle stage) ([4]; 120 min): > 8 µM

CN(C)CCCNC(=O)CCNC(=O)c1cc(NC(=O)c2cc(NC(=O)c3cc(NC(=O)CCNC(=O)c4cc(NC(=O)c5cc(NC(=O)c6cc(NC(=O)CCNC(=O)c7cc(NC(=O)c8cc(NC(=O)c9cccn9C)cn8C)cn7C)cn6C)cn5C)cn4C)cn3C)cn2C)cn1C [Compound P13, PyPyPy-β-PyPyPy-β-PyPyPy-β-Dp]
Ratio (KappW9/KappSAR, SAR preference factor) [1]: 0.8
Kd [1]: 0.00125 µM
ligand concentration giving nearly complete protection (coating) of the W9 probe [2]: ≥ 62.5 nM
GC tolerance / AT-specificity of footprint ([2]; W9 probe, flanking mixed sequences): marked tendency to protect GC base pairs
Kd ([2]; W9 probe): 0.001 µM

(Py)3-β-(Py)3-(Ao)3-(Py)5-β-Dp [Lex18]
Ratio (KappW9/KappSAR, SAR preference factor) [1]: 100
Kd [1]: 0.001 µM
Kd ([2]; W9 probe): 0.1 µM

(Py)3-β-(Py)3-β-Dp-F* [Compound P9F]
Ratio (KappW9/KappSAR, SAR preference factor) [1]: 4
increase of SAR specificity upon fluorescein tagging [1]: about 4 fold
Kd [1]: 0.001 µM
Kd ([2]; W9 probe): 0.004 µM

F*-γ-(Py)3-β-(Py)3-β-Dp-Glu-(Ao)3-(Py)5-β-Dp [Lex10F]
Ratio (KappW9/KappSAR, SAR preference factor) [1]: 20
Kd [1]: 0.001 µM
Kd ([2]; W9 probe): 0.02 µM
reduction of binding affinity upon fluorescein tagging ([2]; versus untagged compound): only a minor reduction in affinity

F*-γ-(Py)5-β-Dp [Compound P7F]
Ratio (KappW9/KappSAR, SAR preference factor) [1]: 2.5
Kd [1]: 1.2 µM
Kd ([2]; W9 probe): 3 µM

F*-γ-(Py)5-β-Dp-Glu-(Ao)3-(Py)5-β-Dp [Lex9F]
Ratio (KappW9/KappSAR, SAR preference factor) [1]: 25
Kd [1]: 0.1 µM
Kd ([2]; W9 probe): 2.5 µM

PyPyPy-β-PyPyPy-β-Dp-E-AoAoAo-PyPyPyPyPy-β-Dp [Lex10]
affinity for SAR lower than that of MATH20 [1]: approximately 100
Kd [1]: 0.00028 µM
Kd ([2]; W9 probe): 0.02 µM
concentration at which inhibition of topoisomerase II cleavage occurs abruptly [3]: around 600 nM
stimulation of topoisomerase II cleavage in satellite III [3]: does not stimulate
inhibition of topoisomerase II cleavage in satellite III ([3]; 1 μM): inhibits cleavage of topoisomerase II completely
concentration giving even earlier arrest (swollen, remodeled sperm-shaped nuclei) [4]: 500 nM
higher concentration than MATH20 for inhibition of condensation [4]: 80 fold
reversal of condensation inhibition by competitor oligonucleotide ([4]; 360 ng of W9 or GAGAA oligo): did not reverse the block
reversal of condensation inhibition by competitor oligonucleotide ([4]; 50 to 100 ng SAR oligo): completely reversed

PyPyPyPyPy-β-Dp-E-AoAoAo-PyPyPyPyPy-β-Dp [Lex9]
Ratio (KappW9/KappSAR, SAR preference factor) [1]: 2
Kd [1]: 0.00175 µM
SAR specificity factor after tagging with fluorescent label ([1]; value of the tagged derivative): 25
Kd ([2]; W9 probe): 0.0035 µM
stimulation of topoisomerase II cleavage in satellite III [3]: much reduced cleavage stimulation
inhibition of condensation ([4]; 250 to 500 nM): Little inhibition
